In assay [1] the test system is globules rouges des drépanocytaires. As to the kind of experiment: Inhibition of sickling of human erythrocytes from sickle-cell patients under deoxygenation (Nomarski microscopy). The class given is cell-based, humains. The conditions noted are these: inhibition de la falciformation des érythrocytes; incubation 1 h at 37°C, pH 7,40, with product; molar ratio produit/hémoglobine initially 0,5 to 20; ratio used for the table values not given. How it is done:
L'inhibition de la falciformation des érythrocytes humains a été évaluée selon la méthode consistant à laver et incuber dans un tampon salin (pH 7,40 - 0,15 M), les globules rouges des drépanocytaires pendant une heure à 37°C dans un bainmarie sous agitation circulaire en présence du produit ci-dessus à différentes concentrations. Dans cette opération le rapport molaire produit/hémoglobine est testé initialement dans l'intervalle allant de 0,5 à 20. En fonction des résultats obtenus, ce rapport est modifié. A la fin de l'incubation, l'excès de produit est enlevé par lavage. La suspension cellulaire ajustée à un hématocrite de 5 % est transférée dans un Erlenmeyer et incubée à 37°C sous un courant d'un mélange humidifié d'azote et d'oxygène. La concentration d'oxygène est réglée par une pompe à mélange gazeux. Le gaz effluent est transféré dans un autre tube contenant du formaldéhyde. A la fin de l'incubation, la suspension cellulaire est transférée dans le formaldéhyde par simple retournement de la fiole.
La proportion des cellules déformées et de celles ayant les caractéristiques de drépanocytes (présentant deux prolongements filiformes) est évaluée à l'aide d'un microscope ayant une optique interférentielle de NOMARSKY. L'inhibition de la falciformation a été calculée selon la formule suivante: • % cellules falciformées - % cellules falciformées en témoins présence de la drogue % cellules falciformées du témoin

The test system of assay [2] is falciformation. The conditions noted are these: literature (Inserm Symposium 1979); cited from earlier work.

For `c1c[nH]c(SSc2ncc[nH]2)n1` [2,2'-dithiodi(1H-imidazole)], the % inhibition (as a rule, the share of the control response that was lost under treatment) in assay [1] is 80%.

`C1CSC(SSC2=NCCS2)=N1` [2,2'-dithiodi(4,5-dihydrothiazole)]: the “% inhibition” value in assay [1] was found to be 90%.

For `c1cnc(SSc2ncccn2)nc1` [2,2'-dithiodipyrimidine], the “% inhibition” value in assay [1] is reported as 50%.

For `c1nc(SSc2nc[nH]n2)n[nH]1` [3,3'-dithiodi(1H-1,2,4-triazole)], the “% inhibition” value in assay [1] is given as 100%.

Consider `NCCSSCCN` [cystamine, reference compound], for which the “% inhibition” value in assay [1] was 33%. Moreover, the “inhibition de la falciformation” value in assay [2] was “particulièrement active”.

For the molecule `NC(=O)CSSCC(N)=O` [dithio-diacétamide], the “% inhibition” value in assay [1] came out at 80%.

On to `CN(C)C(=O)CSSCC(=O)N(C)C` [dithiodi(N,N-diméthyl)acétamide], for which the “% inhibition” value in assay [1] stood at 95%.

On to `N=C(N)SSC(=N)N` [dithiodiformamidine], for which, in assay [1], the “% inhibition” value turned out to be 100%.

The values above are taken from patent EP0126012B1, “Pharmaceutical compositions containing symmetrical disulfides” (SANOFI S.A., priority 1983, dated 1984).
